Measured values: patent publication EP1130064A1, “DYE COMPOSITION, INK COMPOSITION, AND INK-JET RECORDING METHOD” (Nippon Kayaku Kabushiki Kaisha, priority 1998, dated 2000)

Key:
[1] = Water fastness of recorded image (stirred in water); assay type: physicochemical; settings: stirred in water 2 min, dried; for Water fastness Judgment: JIS fading gray scale; for Water fastness (ΔE): color difference before/after
Excerpt: (§1) By using an ink-jet printer (Trade name: PICTY80L, made by NEC KK), ink-jet printing was done on five types of recording materials: a plain paper(Printer Paper A4, TLB5A4S, made by Canon KK), a special paper A(Color BJ Paper LC101, made by Canon KK), a special paper B(Color Image Jet Coat Paper STX73A4, made by Sharp KK), a glossy film A(Special Glossy Film MJA4SP6, made by Seiko-Epson KK), and a glossy film B(Color BJ Photo Sheet Film CA-101, made by Canon KK). The test results on hue, vividness, light fastness, and water fastness in recorded images pictured by the water-based yellow ink composition ( X=H, M=Na in Formula (1)) of the present invention are shown in Table 2.
(§2) An ink composition for the comparative example was prepared same as in the above (A), but the ink composition contained C.I. Acid Yellow 17, an azo dye generally applied for an ink-jet yellow dye in place of the dye composition in Table 1 and was adjusted to coincide in optical density with the yellow ink of the present invention. The test results on hue, vividness, light fastness, and water fastness in recorded images pictured by the ink composition for the comparative example also are shown in Table 2. Hue and vividness in the color sample of JNC's JAPAN COLOR are shown in Table 2 (The paper of the color sample Japan Color Standard Paper a paper). (C) Assessment of recorded image
A recorded material was set in a beaker filled with water, stirred for 2 min and dried. The color fading of the recorded image after treatment was determined based on the JIS fading gray scale. Color difference (ΔE) between before and after the treatment also was determined by using the above colorimetry.

[2] = Light fastness of recorded image (carbon arc fade meter); assay type: physicochemical; settings: carbon arc 40 hours; for Light fastness Judgment: blue scale grade JIS L-0841; for Light fastness (ΔE): color difference before/after
Excerpt: as §1, §2
A carbon arc fade meter ( by Suga Testing Machine Co.) was used to irradiate carbon arc on the recorded image for 40 hours. Grade was determined based on blue scale grade as prescribed in JIS L-0841. Color difference (ΔE) between before and after the irradiation also was determined by using the above colorimetry.

With “C.I. Acid Yellow 17 [Comparative example 1]” the “Water fastness Judgment” value ([1]; Glossy film A) was “Grade4-5”, the “Water fastness (ΔE)” value ([1]; Glossy film A) was 6.2 and the “Water fastness Judgment” value ([1]; Glossy film B) was “Grade4-5”. The “Water fastness (ΔE)” value ([1]; Glossy film B) was 4.7, the “Water fastness Judgment” value ([1]; Plain paper) was “Grade 1” and the “Water fastness (ΔE)” value ([1]; Plain paper) was 76.8. For the same substance, the “Water fastness Judgment” value ([1]; Special paper A) was “Grade 3”, the “Water fastness (ΔE)” value ([1]; Special paper A) was 15.7 and the “Water fastness Judgment” value ([1]; Special paper B) was “Grade 2”. The “Water fastness (ΔE)” value ([1]; Special paper B) was 39.6, the “Light fastness Judgment” value ([2]; Glossy film A) was “Grade3-4” and the “Light fastness (ΔE)” value ([2]; Glossy film A) was 17.6. For the same substance, the “Light fastness Judgment” value ([2]; Glossy film B) was “Grade 2”, the “Light fastness (ΔE)” value ([2]; Glossy film B) was 64.6 and the “Light fastness Judgment” value ([2]; Plain paper) was “Grade4-5”. The “Light fastness (ΔE)” value ([2]; Plain paper) was 4.5, the “Light fastness Judgment” value ([2]; Special paper A) was “Grade 3” and the “Light fastness (ΔE)” value ([2]; Special paper A) was 33.5. For the same substance, the “Light fastness Judgment” value ([2]; Special paper B) was “Grade 3” and the “Light fastness (ΔE)” value ([2]; Special paper B) was 29.4.
